Reference: article PMC8038054, “Bis-3-Chloropiperidines Targeting TAR RNA as A Novel Strategy to Impair the HIV-1 Nucleocapsid Protein” (Molecules, 2021)

How the values were obtained:
[1] = cited from earlier work
TAR RNA [2] = experiment: Electrophoretic Mobility Shift Assay (EMSA), non-denaturing PAGE; assay type: binding, HIV-1; conditions: 1 μM folded TAR, 0-50 μM compound, 2 h 37 °C, BPE buffer pH 7.4
Method: To further evaluate the interaction of B-CePs to TAR RNA, Electrophoretic Mobility Shift Assay (EMSA) was used as a simple tool to visualize the putative interaction of compound 1 with TAR. The RNA was folded in its hairpin secondary structure, incubated for 2 h at 37 °C with increasing concentrations of compound 1 (0, 1, 5, 10, 25, 35, 50 μM), and the reaction products were resolved by polyacrylamide gel electrophoresis (PAGE). Figure 3 provides the results obtained in non-denaturing PAGE.
Figure 3 Non-denaturing polyacrylamide gel electrophoresis (PAGE) (PAA 12%) in TBE 1× showing the concentration-dependence of the interaction of B-CeP 1 with TAR. Folded TAR hairpin 1 μM was incubated with increasing concentrations of compound (0, 1, 5, 10, 25, 35, 50 μM) for 2 h at 37 °C with a BPE buffer (pH 7.4).
Electrophoretic Mobility Shift Assay (EMSA) was used to assess the ability of compound 1 to directly interact to TAR RNA construct. Prior to incubation with compound, TAR RNA was heated to 95 °C for 5 min and then ice-cooled in order to assume the proper hairpin structure. TAR RNA construct (1 μM) was then incubated with increasing concentrations (from 0 to 50 μM) of B-CeP 1, at 37 °C for 2 h in 1× BPE buffer (pH 7.4). […] Fluorescence in gel system was detected on a Geliance 600 Imaging System (PerkinElmer, Waltham, MA, USA).

TAR RNA [3] = experiment: ESI-MS of reaction mixtures of B-CePs with TAR; assay type: binding, HIV-1
Source text: To elucidate the molecular details of the products observed by PAGE, we further characterized the outcome of the reaction with TAR by electrospray ionization-mass spectrometry (ESI-MS). A preliminary determination was accomplished on the individual TAR construct, and a representative ESI-MS spectrum is provided in Figure 4A. Only the region containing the 5-charge state is shown for the sake of clarity. The detected species labelled [TAR-5H]^5− in Figure 4A afforded an experimental mass of 9286.25 Da, which matches the monoisotopic value of 9286.24 Da calculated from the RNA sequence very closely (Table 1). Successively, we performed the experiment by reacting compound 1 with TAR at 1 μM. After 2 h of incubation, at 37 °C, the reaction mixture was submitted to ethanol precipitation to achieve quenching and desalting, which enabled a direct infusion ESI-MS analysis. […] In the presence of nucleic acids, aziridinium preferentially attacks N7 of guanines on the substrate, forming different types of adduct (Scheme S1 in Supplementary Materials).^22 Analyzing a new species in Figure 4B, their masses matched those of products generated by either mono- or bis-alkylation reactions. The species TAR + 1B, displaying a mass of 9548.49 u, corresponded to bi-functional adducts formed by the reaction of both 3-chloropiperidine reactive moieties with the RNA strand (labelled [TAR + 1B − 5H]^5− in the inset in Figure 4B). Differently, TAR + 1M species with a mass of 9566.49 u was assigned to mono-functional adducts, in which only one of the 3-chloropiperidines reacted with the substrate, whereas the other was hydrolyzed to 3-hydroxyl by the aqueous environment (labelled [TAR + 1M − 5H]^5− in the inset in Figure 4B). Table 1 summarizes the experimental and calculated masses of the new products and provides the assignment of the various species detected in Figure 4B.
Figure 4 Representative electrospray-ionization mass spectrometry (ESI-MS) spectra of reaction mixtures obtained by incubating TAR (1 μM) with increasing B-CeP 1 (A:0, B:1, C:10, D:50 μM) at 37 °C for 2 h in a BPE buffer (pH 7.4). The spectra B–D show the concentration-dependent reactions induced by B-CeP 1 on TAR. Greater stoichiometries corresponding to combinations of mono- and bi-functional adducts, were detected and indicated in orange in the figure. The spectra were recorded in 150 mM ammonium acetate. Lower intensity signals near free/adducted species consist of typical sodium and ammonium adducts. Only region containing the 5-charge state is shown for the sake of clarity.
The results shown in Figure 4C,D show the reaction products obtained, further increasing the concentration of compound 1, with 1 μM TAR solution incubated with 10 and 50 μM of B-CeP 1, respectively. […]

[4] = system: recombinant full-length HIV-1 NC; experiment: High-throughput screening (HTS): inhibition of NC-mediated melting of TAR RNA hairpin; assay type: biochemical; conditions: 0.1 μM TAR, 0.8 μM NC, compound pre-incubated 37 °C 2 h; mean of three experiments; read-out: IC50, inhibition of NC-mediated melting of individual TAR RNA hairpin
Method: This assay is based on the doubly labeled TAR construct used above in the FQA experiments and is extensively employed to screen for inhibitors of NC melting activity. After preliminary controls to ensure the absence of direct quenching activity by the compounds under investigation, their ability to inhibit TAR RNA melting was evaluated in the presence of recombinant full-length HIV-1 NC. By adding increasing amounts of B-CePs, we determined the concentration of each compound that induced a 50% reduction in the destabilizing activity of NC (i.e., IC50) on TAR.
High-throughput screening (HTS) was performed to identify the inhibitors of NC chaperone activity on TAR. We used a VictorIII (PerkinElmer) microplate reader with 485 and 535 nm as the excitation and emission wavelengths. The TAR RNA hairpin was formed by snap cooling in the 1× BPE buffer, as described above. A 1 μM aliquot of TAR, which bore 5′-FAM and 3′-DAB modifications, was folded in 1× BPE buffer. The samples were then diluted to 0.1 μM in 1× BPE buffer. Increasing concentrations of compound (0, 0.1, 0.5, 1, 5, 10, 50, 100 μM final) were added to each sample and incubated at 37 °C for 2 h before introducing NC to a final concentration of 0.8 μM (for a 1:8 oligo to NC molar ratio). The plate was immediately read at room temperature three times with 1 min intervals, unless differently specified. The experimental data were fitted as reported earlier to enable calculation of the respective IC50 value.16 Each experiment was performed in triplicate to calculate an average and standard deviation.

TAR RNA [5] = experiment: Fluorescence quenching assay (FQA): thermal melting of TAR RNA hairpin; assay type: binding, HIV-1; conditions: 10 μM compound, 1 μM TAR, 37 °C 2 h, BPE buffer
Source text: A first insight into the putative interaction of B-CePs with RNA was offered by the investigation of the ability of the selected compounds to stabilize the TAR hairpin structure. We employed fluorescence quenching assays (FQA) to measure the ability of each B-CeP to modify the thermal denaturation profile of the TAR construct shown in Figure 1A, which was functionalized at both termini with a fluorophore-quencher couple. In this way, thermal melting of the structure can be assessed from the intensity of the detected fluorescence signal. The melting profile of TAR in the presence of increasing concentrations of each compound allowed an evaluation of the shift in melting temperature (ΔTm) from the reference value, which was determined in the absence of compound. Sample solutions contained 1 μM of RNA substrate and 10, 50 or 100 μM of each B-CePs compound. Figure 2 summarizes the values of ΔTm obtained by adding increasing concentrations of B-CePs 1–5. […]
The ability of the tested compounds to stabilize the TAR RNA structure was measured by the increase in the melting temperature of the oligoribonucleotide in the presence of different concentrations of each compound. […] Fluorescence emission of FAM was read by using a Light Cycler 480 II (Roche, Basel, CH) with emission at λ = 510 nm and correlated to the melting temperature of the oligoribonucleotide. […]

SMILES | IC50 [4] [µM] | Tm increase of TAR RNA (stabilization effect) (TAR RNA [5]) | further results
CC1(C)CC(Cl)CN(CCCN2CC(Cl)CC(C)(C)C2)C1 (centres unmarked) [Compound 1] | 4.75 ± 0.15 | – | Cytotoxicity ([1]; ref [22],[25]): low cytotoxicity; Concentration at which binding events (band shift) reach a plateau (TAR RNA [2]): 25 µM; Binding stoichiometries on TAR detected by ESI-MS (TAR RNA [3]; 1 μM TAR with 10 and 50 μM compound): up to five equivalents; Products of the reaction with TAR detected by ESI-MS (TAR RNA [3]; 1 μM TAR, 37 °C 2 h, BPE buffer): covalent adducts; Fragmentation of the oligoribonucleotide chain of TAR RNA (TAR RNA [3]; ESI spectrometry and gel electrophoresis): not detected
CC1(C)CC(Cl)CN(CCCCCN2CC(Cl)CC(C)(C)C2)C1 (centres unmarked) [Compound 2] | 2.75 ± 0.7 | – | Effect of the longer linker on cell permeability and cytotoxicity ([1]; ref [26]): increases cell permeability and cytotoxicity; Relative reactivity towards the TAR construct (comparison of ESI-MS spectra) (TAR RNA [3]; same B-CeP/TAR molar ratio (10 μM compound, 1 μM TAR)): most reactive
CC1(C)CC(Cl)CN(CCCCCCN2CC(Cl)CC(C)(C)C2)C1 (centres unmarked) [Compound 3] | 3.55 ± 0.37 | – | –
COC(=O)[C@H](CCCCN1CC(Cl)CC(C)(C)C1)N1CC(Cl)CC(C)(C)C1 (some centres unmarked) [Compound 4] | 5.09 ± 0.05 | much weaker stabilization effect | –
COC(=O)[C@@H](CCCCN1CC(Cl)CC(C)(C)C1)N1CC(Cl)CC(C)(C)C1 (some centres unmarked) [Compound 5] | 4.78 ± 0.71 | much weaker stabilization effect | –
